Data set [1] can be described thus: Pharmacokinetic test (BA, CLtot). Type of data set: in vivo. The settings on record: rat, plasma, SD rats. On the procedure:
• (1) Animals: SD rats were used • (2) Breeding conditions: SD rats were allowed to freely take solid food and sterilized tap water. • (3) Dose and grouping: orally or intravenously administered at a predetermined dose; grouping was as follows (Dose depends on the compound)
Oral administration: 1 mg/kg (n=2)
The total body clearance (CLtot) was calculated by dividing the dose by the AUC of the intravenous administration group.

Data set [2] addresses Rat P2X3 receptor (Rattus norvegicus (Rat), UniProt P49654). The experiment in a line: Evaluation of rat P2X3 receptor inhibitory activity in the presence of rat serum albumin (RSA). The settings on record: read-out: ratP2X3 + RSA IC50. Type of data set: cell-based. On the procedure: Rat P2X3 receptor gene (GenBank accession number NM_031075) was expressed in C6BU-1 cell. The C6BU-1 cells were seeded in a 96-well micro titer plate at a concentration of 2500 cells/well and cultured in the medium (7.0% fetal bovine serum, 7.0% horse serum, and 1% antibiotic and antifungal in DMEM) for one day at 37° C. under 5% carbon dioxide atmosphere. The plasmid was transfected into the cells using transfection reagent FuGENE6 (Promega). The transfected cells were cultured in the medium for one day at 37° C. under 5% carbon dioxide atmosphere. The medium was replaced with 4 μM Fluo-4-AM solution (pH 7.5) containing 20 mM HEPES, 137 mM NaCl, 5.27 mM KCl, 0.9 mM MgCl2, 1.26 mM CaCl2, 5.6 mM D-glucose, 2.5 mM probenecid, 10% RSA, and 0.08% Pluronic F-127, and incubated at 37° C. under 5% dioxide carbon atmosphere for one hour. The plate was washed with washing buffer (20 mM HEPES, 137 mM NaCl, 5.27 mM KCl, 0.9 mM MgCl2, 1.26 mM CaCl2, 5.6 mM D-glucose, 2.5 mM probenecid, pH 7.5), and each well was added with 40 μL of this buffer. The plate was placed in High-Throughput Screening System FDSS 3000 (Hamamatsu Photonics K.K.). Measurement of fluorescence intensity by FDSS 3000 was started, and 40 μL of DMSO solutions containing 1% RSA (final concentrations) and different concentrations of the test compound as prepared by dilution with dilution buffer (20 mM HEPES, 137 mM NaCl, 5.27 mM KCl, 0.9 mM MgCl2, 1.26 mM CaCl2, 5.6 mM D-glucose, 2.5 mM probenecid, 0.1% Pluronic F-127, pH 7.5) were dispensed to each well through the built-in automatic dispenser. Five minutes after, 50 nM ATP solution (50 μL) prepared by dilution with the dilution buffer was dispensed through the built-in automatic dispenser, and the measurement of fluorescence intensity was continued for 4 min. For each well, the specific maximum fluorescence intensity was calculated as the ratio of the maximum fluorescence intensity after addition of the ATP solution to the fluorescence intensity at the starting of the measurement. […] FDSS software (Hamamatsu Photonics K.K.) was used for calculation of the specific maximum fluorescence intensity. IC50 was calculated using Microsoft Excel (Microsoft Corporation) and XLfit (idbs Ltd.).

A short description of data set [3]: Solubility test (1% DMSO, artificial intestinal juice pH 6.8). It is filed as physicochemical. The note with it: artificial intestinal juice pH 6.8 with 1% DMSO, 25 °C, fassgf or other biorelevant, kinetic from dmso stock, artificial intestinal juice pH 6.8, 25 degrees Celsius, read-out: Solubulity. On the procedure:
The solubility of a compound was determined under a condition in which 1% DMSO was added. 10 mmol/L compound solution was prepared using DMSO, and then 2 μL of the compound solution was added to 198 μL of artificial intestinal juice in pH 6.8 (to 250 mL of 0.2 mol/L potassium dihydrogen phosphate reagent solution was added 118 mL of 0.2 mol/L NaOH reagent solution and water to provide a final volume of 1000 mL). After standing at 25 degrees Celsius for 18 hours, the mixed solution was filtrated with suction. The filtrate was diluted twice with methanol/water (1/1), and then a concentration in the filtration was measured with HPLC or LC/MS/MS by the absolute calibration method.

The target of data set [4] is CYP2C19 (Homo sapiens (Human), UniProt P33261). Description: CYP inhibition test, CYP2C19. It is filed as in vitro ADME. The note with it: pooled human hepatic microsome; mephenytoin 4′-hydroxylation. The protocol: (§1) Using commercially available pooled human hepatic microsome, and employing, as markers, 7-ethoxyresorufin-O-deethylation (CYP1A2), tolbutamide methyl-hydroxylation (CYP2C9), mephenytoin 4′-hydroxylation (CYP2C19), dextromethorphan O-demethylation (CYP2D6), and terfenedine hydroxylation as typical substrate metabolism reactions of human main five CYP enzyme forms (CYP1A2, 2C9, 2C19, 2D6, 3A4), an inhibitory degree of each metabolite production amount by a test compound was assessed.
CYP2C19, sequence (P33261 whole entry): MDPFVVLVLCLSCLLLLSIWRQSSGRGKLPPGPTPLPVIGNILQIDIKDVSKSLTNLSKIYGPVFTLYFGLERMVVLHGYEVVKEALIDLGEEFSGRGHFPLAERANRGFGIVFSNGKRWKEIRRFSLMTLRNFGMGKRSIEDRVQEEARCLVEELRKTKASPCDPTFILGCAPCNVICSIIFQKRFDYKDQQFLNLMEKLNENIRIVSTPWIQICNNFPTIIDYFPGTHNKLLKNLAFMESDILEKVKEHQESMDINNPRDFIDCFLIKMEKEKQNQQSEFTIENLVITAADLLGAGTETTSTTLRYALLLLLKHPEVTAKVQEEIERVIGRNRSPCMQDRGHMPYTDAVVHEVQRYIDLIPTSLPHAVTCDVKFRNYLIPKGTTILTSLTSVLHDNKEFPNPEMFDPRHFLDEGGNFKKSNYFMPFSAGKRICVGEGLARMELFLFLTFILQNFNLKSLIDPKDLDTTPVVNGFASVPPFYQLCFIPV
(§2) The reaction conditions were as follows: substrate, 0.5 μmol/L ethoxyresorufin (CYP1A2), 100 μmol/L tolbutamide (CYP2C9), 50 μmol/L S-mephenitoin (CYP2C19), 5 μmol/L dextromethorphan (CYP2D6), 1 μmol/L terfenedine (CYP3A4); reaction time, 15 minutes; reaction temperature, 37° C. enzyme, pooled human hepatic microsome 0.2 mg protein/mL; test, drug concentration, 1.0, 5.0, 10, 20 μmol/L (four points).
(§3) Each five kinds of substrates, human hepatic microsome, or a test drug in 50 mmol/L Hepes buffer as a reaction solution was added to a […] at the composition as described above, NADPH, as a cofactor was added to initiate metabolism reactions as markers and, after the incubation at 37° C. for 15 minutes, a methanol/acetonitrile=1/1 (v/v) solution was added to stop the reaction. After the centrifugation at 3000 rpm for 15 minutes, resorufin (CYP1A2 metabolite) in the supernatant was quantified by a fluorescent multilabel counter and tributamide hydroxide (CYP2CP metabolite), mephenytoin 4′hydroxide (CYP2C19 metabolite), […] (CYP2D6 metabolite), and terfenadine alcohol (CYP3A4 metabolite) were quantified by LC/MS/MS.
(§4) Addition of only DMSO being a solvent dissolving a drug to a reaction system was adopted as a control (100%), remaining activity (%) was calculated at each concentration of a test drug added as the solution and IC50 was calculated by reverse presumption by a logistic model using a concentration and an inhibition rate.

Data set [5] concerns the target CYP2C9 (Homo sapiens (Human), UniProt P11712). Description: CYP inhibition test, CYP2C9. It is filed as in vitro ADME. The note with it: pooled human hepatic microsome; tolbutamide methyl-hydroxylation. On the procedure:
as §1, §2, §3, §4

Data set [6] deals with CYP1A2 (Homo sapiens (Human), UniProt P05177). The experiment in a line: CYP inhibition test, CYP1A2. Type of data set: in vitro ADME. The settings on record: pooled human hepatic microsome; 7-ethoxyresorufin-O-deethylation. On the procedure: as §1, §2, §3, §4
CYP1A2, sequence (P05177 whole entry): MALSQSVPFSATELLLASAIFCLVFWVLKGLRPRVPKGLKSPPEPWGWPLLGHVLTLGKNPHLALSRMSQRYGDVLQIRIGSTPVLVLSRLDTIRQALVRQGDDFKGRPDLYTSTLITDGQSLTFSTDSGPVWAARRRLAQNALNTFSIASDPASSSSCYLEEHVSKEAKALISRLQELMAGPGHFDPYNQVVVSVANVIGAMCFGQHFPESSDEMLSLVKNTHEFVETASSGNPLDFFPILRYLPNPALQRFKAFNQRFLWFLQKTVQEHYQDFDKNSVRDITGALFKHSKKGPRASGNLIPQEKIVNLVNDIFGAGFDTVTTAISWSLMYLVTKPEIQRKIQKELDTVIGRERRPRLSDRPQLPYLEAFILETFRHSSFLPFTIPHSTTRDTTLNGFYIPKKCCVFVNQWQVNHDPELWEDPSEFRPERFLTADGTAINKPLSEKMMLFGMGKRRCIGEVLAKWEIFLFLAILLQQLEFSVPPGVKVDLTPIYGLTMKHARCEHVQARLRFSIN
The target in data set [7] is CYP3A4 (Homo sapiens (Human), UniProt P08684). The experiment in a line: CYP inhibition test, CYP3A4. The settings on record: pooled human hepatic microsome; terfenedine hydroxylation. It is filed as in vitro ADME. The protocol: as §1, §2, §3, §4
CYP3A4, sequence (P08684 whole entry): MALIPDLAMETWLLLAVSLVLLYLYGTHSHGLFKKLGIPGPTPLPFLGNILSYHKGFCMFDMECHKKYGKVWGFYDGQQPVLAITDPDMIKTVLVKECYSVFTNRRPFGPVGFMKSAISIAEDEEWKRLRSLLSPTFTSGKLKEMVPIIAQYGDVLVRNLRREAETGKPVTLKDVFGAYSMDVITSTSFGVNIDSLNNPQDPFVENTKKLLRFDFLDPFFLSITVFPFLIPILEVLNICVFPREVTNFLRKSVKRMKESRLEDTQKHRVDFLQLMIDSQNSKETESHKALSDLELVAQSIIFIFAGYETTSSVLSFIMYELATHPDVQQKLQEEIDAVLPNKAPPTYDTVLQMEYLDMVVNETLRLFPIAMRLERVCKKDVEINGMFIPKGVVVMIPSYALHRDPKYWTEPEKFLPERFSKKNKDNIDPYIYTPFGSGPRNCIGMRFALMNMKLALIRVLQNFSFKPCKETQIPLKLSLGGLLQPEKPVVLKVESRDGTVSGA
Data set [8] concerns the target CYP2D6 (Homo sapiens (Human), UniProt P10635). The experiment in a line: CYP inhibition test, CYP2D6. The settings on record: pooled human hepatic microsome; dextromethorphan O-demethylation. Type of data set: in vitro ADME. On the procedure:
as §1, §2, §3, §4

Where [9] appears, read: intravenous administration 0.5 mg/kg.
Setting [10] is: intravenous administration 0.5 mg/kg, read-out: AUC (iv).
The mark [11] stands for this setting: oral administration 1 mg/kg, read-out: AUC (po).

Where two headings read alike, the source gives them in different places.

Rat P2X3 receptor, sequence (P49654 whole entry): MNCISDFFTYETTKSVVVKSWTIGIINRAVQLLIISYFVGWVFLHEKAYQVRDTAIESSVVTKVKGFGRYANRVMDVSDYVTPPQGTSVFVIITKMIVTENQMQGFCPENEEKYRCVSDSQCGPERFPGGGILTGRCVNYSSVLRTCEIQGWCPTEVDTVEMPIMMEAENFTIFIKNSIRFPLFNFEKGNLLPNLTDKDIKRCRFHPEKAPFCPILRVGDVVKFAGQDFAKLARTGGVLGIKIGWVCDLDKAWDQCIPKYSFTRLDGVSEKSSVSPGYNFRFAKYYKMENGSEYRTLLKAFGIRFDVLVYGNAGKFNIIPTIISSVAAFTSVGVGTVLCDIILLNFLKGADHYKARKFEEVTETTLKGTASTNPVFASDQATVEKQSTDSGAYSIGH
CYP2C9, sequence (P11712 whole entry): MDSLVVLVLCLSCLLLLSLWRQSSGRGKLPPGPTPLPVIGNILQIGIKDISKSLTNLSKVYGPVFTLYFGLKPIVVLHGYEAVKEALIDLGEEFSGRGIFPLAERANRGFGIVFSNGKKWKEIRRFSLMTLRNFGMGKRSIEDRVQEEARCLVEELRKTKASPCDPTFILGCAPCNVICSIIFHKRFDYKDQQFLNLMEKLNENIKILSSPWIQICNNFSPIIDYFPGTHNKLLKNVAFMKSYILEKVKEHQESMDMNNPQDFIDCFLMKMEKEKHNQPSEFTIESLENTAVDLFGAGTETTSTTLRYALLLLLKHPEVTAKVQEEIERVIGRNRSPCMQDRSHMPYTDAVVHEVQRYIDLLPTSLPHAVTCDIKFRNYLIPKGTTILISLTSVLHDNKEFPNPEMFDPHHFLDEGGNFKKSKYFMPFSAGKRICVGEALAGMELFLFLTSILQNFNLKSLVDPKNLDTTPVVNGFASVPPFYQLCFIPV
CYP2D6, sequence (P10635 whole entry): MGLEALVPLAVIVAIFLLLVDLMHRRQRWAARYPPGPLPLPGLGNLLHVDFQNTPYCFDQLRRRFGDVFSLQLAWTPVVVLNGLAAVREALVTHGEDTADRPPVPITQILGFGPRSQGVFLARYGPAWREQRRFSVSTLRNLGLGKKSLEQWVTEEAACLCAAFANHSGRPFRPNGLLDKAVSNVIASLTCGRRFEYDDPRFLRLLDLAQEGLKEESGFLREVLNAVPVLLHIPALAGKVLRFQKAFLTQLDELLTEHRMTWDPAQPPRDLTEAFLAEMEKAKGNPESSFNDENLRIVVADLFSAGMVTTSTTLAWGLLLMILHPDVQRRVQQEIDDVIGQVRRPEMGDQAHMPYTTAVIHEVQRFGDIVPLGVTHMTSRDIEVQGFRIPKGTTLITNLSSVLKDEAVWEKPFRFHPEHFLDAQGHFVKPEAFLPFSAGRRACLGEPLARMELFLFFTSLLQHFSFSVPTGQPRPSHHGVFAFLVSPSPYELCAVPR

`C[C@@H](Cn1c(=O)[nH]/c(=N\c2ccc(Oc3cccc(Cl)n3)cc2)n(Cc2ccc(Cl)cc2)c1=O)C(=O)O` [Compound I-014] showed a clearance in data set [1] (setting [9]) of 4 mL/min/kg. Also, the AUC is 2300 ng·h/mL in data set [1] (setting [10]) and 4890 ng·h/mL in data set [1] (setting [11]).
Taken in the same sequence, the figures for `O=C(O)C1(Cn2c(=O)[nH]/c(=N\c3ccc(Oc4cccc(F)n4)cc3)n(Cc3ccc(Cl)cc3)c2=O)CC1` [Compound I-017] were 2.3 mL/min/kg, 3790 ng·h/mL and 6110 ng·h/mL.
Consider `C[C@@H](Cn1c(=O)[nH]/c(=N\c2ccc(Oc3ccc(OC(F)F)cn3)cc2)n(Cc2ccc(Cl)cc2)c1=O)C(=O)O` [Compound I-022], for which, in data set [2], the IC50 stood at 0.011 µM.
On to `Cc1ccc(Cn2c(=O)n(C[C@H](C)C(=O)O)c(=O)[nH]/c2=N\c2ccc(Oc3ccc(C(F)(F)F)cn3)cc2)cc1` [Compound I-038], for which the solubility at 18 h in data set [3] is over 50 µM.
Same read-out and setting: then `Cc1ccc(Cn2c(=O)n(C[C@H](C)C(=O)O)c(=O)[nH]/c2=N\c2ccc(Oc3cccc(C(F)(F)F)n3)cc2)cc1` [Compound I-039], with over 50 µM.
Take `Cc1ccc(Cn2c(=O)n(CC(C)(C)C(=O)O)c(=O)[nH]/c2=N\c2ccc(Oc3ccc(F)cn3)cc2)cc1` [Compound I-041]: the IC50 in data set [4], in data set [5], in data set [6], in data set [7] and in data set [8] was over 20 µM in each case. Also, in data set [3], the solubility at 18 h is over 50 µM.
In data set [1] (setting [9]), `Cc1ccc(Oc2ccc(/N=c3\[nH]c(=O)n(CC(C)(C)C(=O)O)c(=O)n3Cc3ccc(Cl)cc3)cc2)nc1` [Compound I-058] returned a clearance of 5.8 mL/min/kg. Also, the AUC amounted to 1510 ng·h/mL in data set [1] (setting [10]) and 2030 ng·h/mL in data set [1] (setting [11]).
`COc1ccnc(Oc2ccc(/N=c3\[nH]c(=O)n(C[C@H](C)C(=O)O)c(=O)n3Cc3ccc(Cl)cc3)cc2)c1` [Compound I-069]: the IC50 in data set [4], in data set [5], in data set [6], in data set [7] and in data set [8] was over 20 µM each time.
In the case of `Cc1ccc(Cn2c(=O)n(C[C@H](C)C(=O)O)c(=O)[nH]/c2=N\c2ccc(Oc3ccc(Cl)cn3)cc2)cc1` [Compound I-100], the half-inhibitory concentration (IC50) in data set [2] came to 0.009 µM.
On to `Cc1ccc(Cn2c(=O)n([C@@H](C)[C@@H](C)C(=O)O)c(=O)[nH]/c2=N\c2ccc(Oc3cccc(F)n3)cc2)cc1` [Compound I-106], for which the IC50 in data set [4], in data set [5], in data set [6], in data set [7] and in data set [8] was over 20 µM throughout.
Take `Cc1ccc(Cn2c(=O)n([C@@H](C)[C@@H](C)C(=O)O)c(=O)[nH]/c2=N\c2ccc(Oc3ccc(C)cn3)cc2)cc1` [Compound I-113]: in data set [2], the IC50 came to 0.01 µM.
In turn, `C[C@@H](Cn1c(=O)[nH]/c(=N\c2ccc(Oc3ccccn3)cc2)n(Cc2ccc(Cl)cc2)c1=O)C(=O)O` [Compound I-127] came in with a clearance in data set [1] (setting [9]) of 3.8 mL/min/kg. The exposure (AUC) worked out at 2330 ng·h/mL in data set [1] (setting [10]) and 2460 ng·h/mL in data set [1] (setting [11]).
In the case of `COc1nccc(Oc2ccc(/N=c3\[nH]c(=O)n([C@@H](C)[C@@H](C)C(=O)O)c(=O)n3Cc3ccc(Cl)cc3)cc2)n1` [Compound R-010], the half-inhibitory concentration (IC50) in data set [4], in data set [5], in data set [6], in data set [7] and in data set [8] was over 20 µM in each case.
For `C[C@@H](Cn1c(=O)[nH]/c(=N\c2ccc(Oc3cnc(Cl)cn3)cc2)n(Cc2ccc(Cl)cc2)c1=O)C(=O)O` [Compound R-014], the IC50 is over 20 µM in data set [4]; over 20 µM in data set [5]; over 20 µM in data set [6]; over 20 µM in data set [7]; over 20 µM in data set [8]; 0.006 µM in data set [2].
For `CC(C)(Cn1c(=O)[nH]/c(=N\c2ccc(Oc3cnc(Cl)cn3)cc2)n(Cc2ccc(Cl)cc2)c1=O)C(=O)O` [Compound R-027], the IC50 in data set [4], in data set [5], in data set [6], in data set [7] and in data set [8] was over 20 µM in each case.
With `C[C@@H](Cn1c(=O)[nH]/c(=N\c2ccc(Oc3cccnn3)c(F)c2)n(Cc2ccc(Cl)cc2)c1=O)C(=O)O` [Compound R-037], the IC50 in data set [2] was 0.008 µM.
`COc1cc(Oc2ccc(/N=c3\[nH]c(=O)n(C[C@H](C)C(=O)O)c(=O)n3Cc3ccc(Cl)cc3)cc2)cc(F)n1` [Compound R-058]: the IC50 in data set [4], in data set [5], in data set [6], in data set [7] and in data set [8] was over 20 µM throughout.

Values taken from US9732060B2, “Aminotriazine derivative and pharmaceutical composition comprising the same” (Shionogi & Co., Ltd., priority 2013, dated 2017).
